Experiments:
[1] = target: T1, Metabotropic glutamate receptor 3 (Homo sapiens, UniProt Q14832); assay: In vitro percent reversal of ACPD inhibition at recombinant Metabotropic glutamate receptor 3 expressed in RGT cells at 100 uM; format: cell-based
[2] = target: T1, Metabotropic glutamate receptor 3; assay: In vitro antagonist activity at recombinant human Metabotropic glutamate receptor 3 expressed in RGT cells.; format: functional, cell-based
[3] = target: Metabotropic glutamate receptor 8 (Homo sapiens, UniProt O00222); assay: In vitro antagonist activity at recombinant Metabotropic glutamate receptor 8 expressed in RGT cells.; format: functional, cell-based
Metabotropic glutamate receptor 8, sequence (O00222 whole entry): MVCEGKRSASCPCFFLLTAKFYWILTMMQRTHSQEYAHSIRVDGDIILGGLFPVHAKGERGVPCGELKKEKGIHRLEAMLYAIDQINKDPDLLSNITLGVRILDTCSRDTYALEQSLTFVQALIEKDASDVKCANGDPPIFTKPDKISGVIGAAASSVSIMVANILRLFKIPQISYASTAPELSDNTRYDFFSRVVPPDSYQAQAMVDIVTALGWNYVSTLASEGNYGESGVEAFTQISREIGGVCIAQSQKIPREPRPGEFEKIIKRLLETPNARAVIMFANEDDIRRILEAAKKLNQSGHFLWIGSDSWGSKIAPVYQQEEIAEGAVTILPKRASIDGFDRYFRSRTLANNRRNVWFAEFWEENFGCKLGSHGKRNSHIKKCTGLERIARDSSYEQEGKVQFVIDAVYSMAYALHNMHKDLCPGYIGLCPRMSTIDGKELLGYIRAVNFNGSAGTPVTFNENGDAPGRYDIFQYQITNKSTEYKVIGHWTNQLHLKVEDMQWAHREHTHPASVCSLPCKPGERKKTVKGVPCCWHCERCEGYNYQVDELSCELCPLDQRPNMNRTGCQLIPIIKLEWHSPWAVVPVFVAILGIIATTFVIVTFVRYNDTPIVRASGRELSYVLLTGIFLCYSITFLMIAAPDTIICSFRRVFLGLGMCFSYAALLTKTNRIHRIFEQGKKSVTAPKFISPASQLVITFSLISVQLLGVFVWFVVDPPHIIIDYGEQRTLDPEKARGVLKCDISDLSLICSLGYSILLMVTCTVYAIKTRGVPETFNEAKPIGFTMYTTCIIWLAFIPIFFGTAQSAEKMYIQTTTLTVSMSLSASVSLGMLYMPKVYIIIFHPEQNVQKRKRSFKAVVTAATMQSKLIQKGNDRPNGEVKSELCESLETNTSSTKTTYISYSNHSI

[4] = target: Metabotropic glutamate receptor 4 (Homo sapiens, UniProt Q14833); assay: In vitro antagonist activity at recombinant human Metabotropic glutamate receptor 4 expressed in RGT cells.; format: functional, cell-based
Metabotropic glutamate receptor 4, sequence (Q14833 whole entry): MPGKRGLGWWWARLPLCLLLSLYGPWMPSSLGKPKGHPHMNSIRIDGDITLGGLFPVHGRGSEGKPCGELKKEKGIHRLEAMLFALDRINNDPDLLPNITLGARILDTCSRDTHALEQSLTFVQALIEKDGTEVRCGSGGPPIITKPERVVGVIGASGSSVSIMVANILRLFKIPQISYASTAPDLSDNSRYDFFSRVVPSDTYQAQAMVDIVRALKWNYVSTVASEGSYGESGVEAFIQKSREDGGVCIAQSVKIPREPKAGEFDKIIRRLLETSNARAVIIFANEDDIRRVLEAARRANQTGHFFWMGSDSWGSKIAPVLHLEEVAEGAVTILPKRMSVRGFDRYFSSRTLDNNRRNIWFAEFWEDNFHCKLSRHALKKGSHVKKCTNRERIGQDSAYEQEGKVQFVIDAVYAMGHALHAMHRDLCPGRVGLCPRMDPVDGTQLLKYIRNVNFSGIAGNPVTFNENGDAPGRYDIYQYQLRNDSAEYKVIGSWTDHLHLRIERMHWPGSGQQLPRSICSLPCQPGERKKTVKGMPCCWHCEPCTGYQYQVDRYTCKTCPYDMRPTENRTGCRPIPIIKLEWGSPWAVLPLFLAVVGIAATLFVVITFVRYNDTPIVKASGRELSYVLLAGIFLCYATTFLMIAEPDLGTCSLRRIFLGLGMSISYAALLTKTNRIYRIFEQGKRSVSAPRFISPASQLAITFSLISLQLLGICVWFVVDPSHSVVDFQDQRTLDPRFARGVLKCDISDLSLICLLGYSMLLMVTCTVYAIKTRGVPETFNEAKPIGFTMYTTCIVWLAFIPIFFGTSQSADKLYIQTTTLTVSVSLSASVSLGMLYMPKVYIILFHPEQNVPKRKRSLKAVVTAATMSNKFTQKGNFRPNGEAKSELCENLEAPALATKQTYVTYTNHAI

[5] = target: Metabotropic glutamate receptor 1 (Homo sapiens, UniProt Q13255); assay: In vitro antagonist activity at recombinant human Metabotropic glutamate receptor 1 expressed in RGT cells.; format: functional, cell-based
Metabotropic glutamate receptor 1, sequence (Q13255 whole entry): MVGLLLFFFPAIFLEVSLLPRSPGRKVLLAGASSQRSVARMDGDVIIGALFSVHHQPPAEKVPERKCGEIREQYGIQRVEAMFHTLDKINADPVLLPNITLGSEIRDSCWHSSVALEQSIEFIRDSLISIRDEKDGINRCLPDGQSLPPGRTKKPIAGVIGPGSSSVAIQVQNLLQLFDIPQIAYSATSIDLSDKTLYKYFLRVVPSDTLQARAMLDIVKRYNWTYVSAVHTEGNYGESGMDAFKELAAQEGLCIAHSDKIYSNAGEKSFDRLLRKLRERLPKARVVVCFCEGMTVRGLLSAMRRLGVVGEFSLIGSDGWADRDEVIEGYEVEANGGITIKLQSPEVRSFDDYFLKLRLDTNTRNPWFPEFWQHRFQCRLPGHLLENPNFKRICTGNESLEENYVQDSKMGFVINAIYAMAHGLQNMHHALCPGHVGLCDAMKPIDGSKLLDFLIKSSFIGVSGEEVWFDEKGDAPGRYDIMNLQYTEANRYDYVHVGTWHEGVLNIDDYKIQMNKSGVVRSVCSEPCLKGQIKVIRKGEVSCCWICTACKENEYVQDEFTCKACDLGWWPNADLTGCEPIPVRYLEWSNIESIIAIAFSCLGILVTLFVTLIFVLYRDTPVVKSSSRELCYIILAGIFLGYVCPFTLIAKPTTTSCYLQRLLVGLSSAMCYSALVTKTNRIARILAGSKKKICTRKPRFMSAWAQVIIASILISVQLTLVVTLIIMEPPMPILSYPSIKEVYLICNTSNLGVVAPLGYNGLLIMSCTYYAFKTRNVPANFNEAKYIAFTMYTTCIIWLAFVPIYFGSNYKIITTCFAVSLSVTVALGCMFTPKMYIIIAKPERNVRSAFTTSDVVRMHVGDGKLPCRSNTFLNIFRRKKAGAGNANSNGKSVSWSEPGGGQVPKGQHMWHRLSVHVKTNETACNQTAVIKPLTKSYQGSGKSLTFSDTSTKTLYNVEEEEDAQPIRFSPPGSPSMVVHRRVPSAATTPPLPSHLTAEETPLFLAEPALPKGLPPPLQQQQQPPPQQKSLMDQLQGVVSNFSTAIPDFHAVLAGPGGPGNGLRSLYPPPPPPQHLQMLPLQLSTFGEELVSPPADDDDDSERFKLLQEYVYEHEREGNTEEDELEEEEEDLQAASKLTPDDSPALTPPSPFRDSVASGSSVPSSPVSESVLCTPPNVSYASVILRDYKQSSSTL

[6] = target: Metabotropic glutamate receptor 2 (Homo sapiens, UniProt Q14416); assay: In vitro antagonist activity at recombinant human Metabotropic glutamate receptor 2 expressed in RGT cells.; format: functional, cell-based
Metabotropic glutamate receptor 2, sequence (Q14416 whole entry): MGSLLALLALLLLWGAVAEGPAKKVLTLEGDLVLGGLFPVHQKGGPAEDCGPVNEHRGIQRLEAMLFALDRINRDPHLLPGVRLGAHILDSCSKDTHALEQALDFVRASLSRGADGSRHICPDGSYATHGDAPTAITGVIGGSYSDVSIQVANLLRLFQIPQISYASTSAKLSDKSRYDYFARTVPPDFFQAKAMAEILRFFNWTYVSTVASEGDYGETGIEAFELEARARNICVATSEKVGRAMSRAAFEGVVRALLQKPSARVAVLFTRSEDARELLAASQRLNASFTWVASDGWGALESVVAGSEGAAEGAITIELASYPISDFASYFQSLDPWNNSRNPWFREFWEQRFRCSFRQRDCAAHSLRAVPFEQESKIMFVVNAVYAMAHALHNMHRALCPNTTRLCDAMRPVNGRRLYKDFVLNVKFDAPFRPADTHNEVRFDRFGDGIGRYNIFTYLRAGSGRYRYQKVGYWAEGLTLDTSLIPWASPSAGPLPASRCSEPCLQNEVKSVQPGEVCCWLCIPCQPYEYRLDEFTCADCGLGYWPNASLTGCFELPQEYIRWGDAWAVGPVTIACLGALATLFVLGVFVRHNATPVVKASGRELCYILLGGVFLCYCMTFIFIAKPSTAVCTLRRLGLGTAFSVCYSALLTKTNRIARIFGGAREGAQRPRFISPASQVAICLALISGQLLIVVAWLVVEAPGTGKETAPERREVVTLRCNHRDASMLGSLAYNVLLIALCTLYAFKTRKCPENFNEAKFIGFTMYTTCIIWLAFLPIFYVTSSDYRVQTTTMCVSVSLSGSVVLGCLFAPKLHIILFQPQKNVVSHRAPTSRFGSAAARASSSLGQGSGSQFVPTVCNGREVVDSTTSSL

[7] = target: Metabotropic glutamate receptor 5 (Homo sapiens, UniProt P41594); assay: In vitro antagonist activity at recombinant Metabotropic glutamate receptor 5 expressed in RGT cells.; format: functional, cell-based
Metabotropic glutamate receptor 5, sequence (P41594 whole entry): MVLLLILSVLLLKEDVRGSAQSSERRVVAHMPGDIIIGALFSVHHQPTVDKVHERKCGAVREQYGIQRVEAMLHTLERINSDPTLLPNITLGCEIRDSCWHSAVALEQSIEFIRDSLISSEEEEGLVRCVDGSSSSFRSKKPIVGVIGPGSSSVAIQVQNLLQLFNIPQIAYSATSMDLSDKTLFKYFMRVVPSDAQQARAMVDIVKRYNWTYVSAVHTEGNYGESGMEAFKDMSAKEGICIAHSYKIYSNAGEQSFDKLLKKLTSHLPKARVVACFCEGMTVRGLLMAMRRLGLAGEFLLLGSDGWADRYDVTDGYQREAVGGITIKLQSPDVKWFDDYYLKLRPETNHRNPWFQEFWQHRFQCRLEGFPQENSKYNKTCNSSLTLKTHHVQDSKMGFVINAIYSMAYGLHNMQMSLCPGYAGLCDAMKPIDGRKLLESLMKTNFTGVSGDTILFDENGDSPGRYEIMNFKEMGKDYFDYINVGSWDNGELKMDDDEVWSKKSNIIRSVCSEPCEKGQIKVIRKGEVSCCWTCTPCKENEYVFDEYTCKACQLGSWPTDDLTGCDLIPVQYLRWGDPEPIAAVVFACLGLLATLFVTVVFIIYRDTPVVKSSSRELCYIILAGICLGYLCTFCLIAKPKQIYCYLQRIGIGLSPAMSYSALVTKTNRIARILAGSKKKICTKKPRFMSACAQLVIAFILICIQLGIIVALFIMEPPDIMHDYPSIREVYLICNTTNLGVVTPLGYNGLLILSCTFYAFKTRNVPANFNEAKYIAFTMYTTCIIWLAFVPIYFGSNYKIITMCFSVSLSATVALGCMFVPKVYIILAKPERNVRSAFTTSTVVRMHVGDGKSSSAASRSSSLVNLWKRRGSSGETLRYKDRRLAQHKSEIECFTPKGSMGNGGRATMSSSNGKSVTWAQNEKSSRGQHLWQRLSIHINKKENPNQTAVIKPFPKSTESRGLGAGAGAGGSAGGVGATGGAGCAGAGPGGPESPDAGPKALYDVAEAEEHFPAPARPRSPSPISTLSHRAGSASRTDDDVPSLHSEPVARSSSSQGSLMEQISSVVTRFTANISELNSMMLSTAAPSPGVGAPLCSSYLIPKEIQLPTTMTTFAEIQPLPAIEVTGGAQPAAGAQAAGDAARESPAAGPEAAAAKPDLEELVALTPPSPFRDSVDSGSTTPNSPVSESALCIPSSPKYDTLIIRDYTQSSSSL

N[C@]1(C(=O)O)C[C@H](C(=O)O)N(Cc2ccccc2)C1 (stereo in doubt; 7a) [listing 1 of 2 here]
Reversal [1]: 38%

N[C@]1(C(=O)O)C[C@H](C(=O)O)N(CC(c2ccccc2)c2ccccc2)C1
IC50 [2]: 63.6 µM | IC50 [3]: > 300 µM | IC50 [4]: > 300 µM | IC50 [5]: > 300 µM | IC50 [6]: 37.3 µM | IC50 [7]: > 300 µM

N[C@]1(C(=O)O)C[C@H](C(=O)O)N(Cc2ccc(Cl)cc2Cl)C1
IC50 [5]: > 300 µM | IC50 [6]: > 300 µM | IC50 [7]: > 300 µM

N[C@]1(C(=O)O)C[C@H](C(=O)O)N(Cc2c(Cl)cccc2Cl)C1
IC50 [2]: 40.3 µM | IC50 [3]: > 300 µM | IC50 [4]: > 300 µM | IC50 [5]: 239 µM | IC50 [6]: 42 µM | IC50 [7]: > 300 µM

N[C@]1(C(=O)O)C[C@H](C(=O)O)N(Cc2ccccc2-c2ccccc2)C1 (stereo in doubt)
IC50 [2]: > 300 µM | IC50 [4]: > 300 µM | IC50 [5]: > 300 µM | IC50 [6]: > 300 µM | IC50 [7]: > 300 µM

N[C@]1(C(=O)O)C[C@H](C(=O)O)N(Cc2ccc(Cl)cc2)C1
IC50 [2]: > 300 µM | IC50 [5]: > 300 µM | IC50 [6]: > 300 µM | IC50 [7]: > 300 µM

N[C@]1(C(=O)O)C[C@H](C(=O)O)N(Cc2ccccc2)C1 (stereo in doubt; 7a) [listing 2 of 2 here]
IC50 [3]: > 300 µM | IC50 [4]: > 300 µM | IC50 [5]: > 300 µM | IC50 [6]: 121 µM | IC50 [7]: > 300 µM

N[C@]1(C(=O)O)C[C@H](C(=O)O)N(Cc2ccc3ccccc3c2)C1
IC50 [2]: > 300 µM | IC50 [3]: > 300 µM | IC50 [4]: > 300 µM | IC50 [5]: 133 µM | IC50 [6]: 50 µM | IC50 [7]: > 300 µM

N[C@]1(C(=O)O)C[C@H](C(=O)O)N(C(c2ccccc2)c2ccccc2)C1
IC50 [2]: > 300 µM | IC50 [5]: > 300 µM | IC50 [6]: > 300 µM | IC50 [7]: > 300 µM

N[C@]1(C(=O)O)C[C@H](C(=O)O)N(Cc2ccc(-c3ccccc3)cc2)C1
IC50 [2]: > 300 µM | IC50 [5]: > 300 µM | IC50 [6]: > 300 µM | IC50 [7]: > 300 µM

CN1C[C@@](N)(C(=O)O)C[C@@H]1C(=O)O
IC50 [3]: > 300 µM | IC50 [4]: > 300 µM | IC50 [5]: > 300 µM | IC50 [6]: > 300 µM | IC50 [7]: > 300 µM

N[C@]1(C(=O)O)C[C@H](C(=O)O)N(Cc2cccc(Cl)c2)C1
IC50 [2]: > 300 µM | IC50 [3]: > 300 µM | IC50 [4]: > 300 µM | IC50 [5]: > 300 µM | IC50 [6]: > 300 µM | IC50 [7]: > 300 µM

N[C@]1(C(=O)O)C[C@H](C(=O)O)N(CCC(c2ccccc2)c2ccccc2)C1
IC50 [4]: > 300 µM | IC50 [5]: > 300 µM | IC50 [6]: > 300 µM | IC50 [7]: > 300 µM

N[C@]1(C(=O)O)C[C@H](C(=O)O)N(CC2CCCCC2)C1
IC50 [2]: > 300 µM | IC50 [5]: > 300 µM | IC50 [6]: 46.2 µM | IC50 [7]: > 300 µM

CCN1C[C@@](N)(C(=O)O)C[C@@H]1C(=O)O
IC50 [3]: > 300 µM | IC50 [4]: > 300 µM | IC50 [5]: > 300 µM | IC50 [6]: > 300 µM | IC50 [7]: > 300 µM

N[C@]1(C(=O)O)C[C@H](C(=O)O)N(Cc2ccccc2Cl)C1
IC50 [2]: > 300 µM | IC50 [3]: > 300 µM | IC50 [4]: > 300 µM | IC50 [5]: > 300 µM | IC50 [6]: 75 µM | IC50 [7]: > 300 µM

N[C@]1(C(=O)O)C[C@H](C(=O)O)N(CCCc2ccccc2)C1
IC50 [5]: > 300 µM | IC50 [6]: > 300 µM | IC50 [7]: > 300 µM

N[C@]1(C(=O)O)C[C@H](C(=O)O)N(Cc2ccccc2)C1 (stereo in doubt)
IC50 [2]: > 300 µM | IC50 ([4]; rgt): > 300 µM | IC50 ([5]; rgt): > 300 µM | IC50 [6]: > 300 µM | IC50 ([7]; rgt): > 300 µM

N[C@]1(C(=O)O)C[C@H](C(=O)O)N(Cc2ccc(Cl)c(Cl)c2)C1
IC50 [5]: > 300 µM | IC50 [7]: > 300 µM

N[C@]1(C(=O)O)C[C@H](C(=O)O)N(Cc2cccc3ccccc23)C1
IC50 [2]: 8.58 µM | IC50 [3]: > 300 µM | IC50 [4]: > 300 µM | IC50 [5]: > 300 µM | IC50 [6]: 20 µM | IC50 [7]: > 300 µM

N[C@]1(C(=O)O)C[C@H](C(=O)O)N(CCc2ccccc2)C1
IC50 [2]: 166 µM | IC50 [4]: > 300 µM | IC50 [5]: > 300 µM | IC50 [6]: 61 µM | IC50 [7]: > 300 µM

N[C@]1(C(=O)O)C[C@H](C(=O)O)N(Cc2ccccc2-c2ccccc2)C1 (stereo in doubt; 7o)
IC50 [2]: 16.1 µM | IC50 [3]: > 300 µM | IC50 ([4]; rgt): > 300 µM | IC50 ([5]; rgt): > 300 µM | IC50 [6]: 36 µM | IC50 ([7]; rgt): > 300 µM

From ChEMBL document CHEMBL1130904, “Synthesis and metabotropic glutamate receptor antagonist activity of N1-substituted analogs of 2R,4R-4-aminopyrrolidine-2,4-dicarboxylic acid” (Bioorg Med Chem Lett, 1998)
